Key:
[1] = log P by HPLC on reversed phase columns (EEC directive 79/831 Annex V.A8); format: physicochemical; conditions: method [a]: LC-MS at pH 2.7, 0.1% formic acid in water / acetonitrile gradient, Table 1 compounds; for chromatographic logP: reversed phase HPLC column
Experimental: Calibration was done with not branched alkan2-ones (with 3 to 16 carbon atoms) with known log P-values (measurement of log P values using retention times with linear interpolation between successive alkanones). lambda-maX-values were determined using UV-spectra from 200 nm to 400 nm and the peak values of the chromatographic signals.

Plasmopara viticola = assay: Plasmopara test (grapevines)/preventive; format: in vivo; conditions: 10 ppm active ingredient, preventive spray on young grapevine plants, evaluated 6 days after inoculation
Experimental: To produce a suitable preparation of active compound, 1 part by weight of active compound is mixed with the stated amounts of solvent and emulsifier, and the concentrate is diluted with water to the desired concentration.
To test for preventive activity, young plants are sprayed with the preparation of active compound at the stated rate of application. After the spray coating has dried on, the plants are inoculated with an aqueous spore suspension of Plasmopara viticola and then remain for 1 day in an incubation cabinet at approximately 20° C. and a relative atmospheric humidity of 100%. The plant is subsequently placed for 4 days in a greenhouse at approximately 21° C. and a relative atmospheric humidity of approximately 90%. The plants are then misted and placed for 1 day in an incubation cabinet.
The test is evaluated 6 days after the inoculation. 0% means an efficacy which corresponds to that of the untreated control, while an efficacy of 100% means that no disease is observed.

Phytophthora infestans = format: in vivo; conditions: 500 ppm active ingredient, preventive spray on young tomato plants, evaluated 5 days after inoculation
Septoria tritici = assay: In vivo preventive test on Septoria tritici (leaf spot on wheat); conditions: 500 ppm active ingredient, preventive spray on young wheat plants, evaluated 24 days after inoculation
Experimental: The tested active ingredients are prepared by homogenization in a mixture of acetone/Dimethyl sulfoxide/tween®, and then diluted with water to obtain the desired active material concentration.
The young plants of wheat are treated by spraying the active ingredient prepared as described above. Control plants are treated only with an aqueous solution of acetone/Dimethyl sulfoxide/tween®.
After 24 hours, the plants are contaminated by spraying the leaves with an aqueous suspension of Septoria tritici spores. The contaminated wheat plants are incubated for 72 hours at 18° C. and at 100% relative humidity and then for 21 days at 20° C. and at 90% relative humidity.
The test is evaluated 24 days after the inoculation. 0% means an efficacy which corresponds to that of the control plants while an efficacy of 100% means that no disease is observed.

| Structure (SMILES) | LogP [1] | chromatographic logP [1] | % efficacy (Plasmopara viticola) [%] | % efficacy (Phytophthora infestans) [%] | % efficacy (Septoria tritici) [%] |
| --- | --- | --- | --- | --- | --- |
| Cn1c(C(=NOCc2cccc(C=CC3CC3)n2)c2ccccc2)noc1=O [Example 21] | 3.48^[a] |  |  |  |  |
| Cn1oc(=O)nc1/C(=N\OCc1csc(C#CC2CC2)n1)c1ccccc1 [Example 12, 3-[(Z)-({[2-(cyclopropylethynyl)-1,3-thiazol-4-yl]methoxy}imino)(phenyl)methyl]-2-methyl-1,2,4-oxadiazol-5(2H)-one] |  | 3.13 | 73 | 100 |  |
| Cn1oc(=O)nc1/C(=N\OCc1cccc(C#CC(C)(C)C)n1)c1ccccc1 [Example 11] | 3.72^[a] |  | 100 | 100 |  |
| CC(=NOCc1ccccc1)Nc1cccc(CO/N=C(/c2ccccc2)c2noc(=O)n2C)n1 [Example 9] | 3.73^[a] |  |  | 100 |  |
| CC(=NOCc1ccccc1)Nc1cccc(CO/N=C(/c2ccccc2)c2nc(=O)on2C)n1 [Example 8] | 3.09^[a] |  | 92 | 100 |  |
| Cn1oc(=O)nc1C(=NOCc1csc(C=CC2CCCCC2)n1)c1ccccc1 [Example 22] | 4.64^[a] |  |  | 95 | 71 |
| CC(=NOCC1CC1)Nc1cccc(CO/N=C(/c2ccccc2)c2noc(=O)n2C)n1 [Example 3, N′-(cyclopropylmethoxy)-N-{6-[({[(Z)-(4-methyl-5-oxo-4,5-dihydro-1,2,4-oxadiazol-3-yl)(phenyl)methylene]amino}oxy)methyl]pyridin-2-yl}ethanimidamide] |  | 3.39 |  | 99 |  |
| Cn1oc(=O)nc1C(=NOCc1csc(C#CCc2ccccc2)n1)c1ccccc1 [Example 18] | 3.74^[a] |  |  | 98 |  |
| CCCCC#Cc1cccc(CO/N=C(/c2ccccc2)c2nc(=O)on2C)n1 [Example 10] | 3.81^[a] |  | 96 | 100 |  |
| CC(=NO)Nc1cccc(CO/N=C(/c2ccccc2)c2nc(=O)on2C)n1 [Example 1] | 1.29^[a] |  |  | 99 |  |
| Cn1c(C(=NOCc2csc(C#CC3CC3)n2)c2ccccc2)noc1=O [Example 17] | 3.76^[a] |  |  | 99 |  |
| Cn1oc(=O)nc1/C(=N\OCc1cccc(C#CC2CC2)n1)c1ccccc1 [Example 6] | 3.02^[a] |  |  |  |  |
| CCCCON=C(C)Nc1cccc(CO/N=C(/c2ccccc2)c2noc(=O)n2C)n1 [Example 7] | 3.69^[a] |  |  | 100 |  |
| Cn1c(/C(=N\OCc2cccc(C#Cc3ccccc3)n2)c2ccccc2)noc1=O [Example 15] | 4.26^[a] |  |  | 80 |  |
| Cn1c(/C(=N\OCc2cccc(C#CC3CC3)n2)c2ccccc2)noc1=O [Example 13] | 3.65^[a] |  |  |  |  |
| Cn1oc(=O)nc1C(=NOCc1csc(C=CCc2ccccc2)n1)c1ccccc1 [Example 20] | 3.85^[a] |  |  |  |  |
| CC(=NO)Nc1cccc(CO/N=C(/c2ccccc2)c2noc(=O)n2C)n1 [Example 2, N′-hydroxy-N-{6-[({[(Z)-(4-methyl-5-oxo-4,5-dihydro-1,2,4-oxadiazol-3-yl)(phenyl)methylene]amino}oxy)methyl]pyridin-2-yl}ethanimidamide] |  | 1.86 |  | 100 | 71 |
| Cn1oc(=O)nc1/C(=N\OCc1cccc(C#Cc2ccccc2)n1)c1ccccc1 [Example 4, 2-methyl-3-[(Z)-phenyl({[6-(phenylethynyl)pyridin-2-yl]methoxy}imino)methyl]-1,2,4-oxadiazol-5(2H)-one] |  | 3.63 |  | 98 |  |
| Cn1oc(=O)nc1/C(=N\OCc1csc(C#CC2CCCCC2)n1)c1ccccc1 [Example 14] | 4.44^[a] |  |  |  |  |
| Cn1c(/C(=N\OCc2csc(C#CC3CCCCC3)n2)c2ccccc2)noc1=O [Example 16] | 5.08^[a] |  |  | 78 |  |
| Cn1c(C(=NOCc2csc(C#CCc3ccccc3)n2)c2ccccc2)noc1=O [Example 19] | 4.37^[a] |  |  | 90 | 79 |
| Cn1c(C(=NOCc2cccc(C=Cc3ccccc3)n2)c2ccccc2)noc1=O [Example 23] | 4.37^[a] |  |  | 92 | 97 |
| CCCCON=C(C)Nc1cccc(CO/N=C(/c2ccccc2)c2nc(=O)on2C)n1 [Example 5] | 3.35^[a] |  |  |  |  |

Source: patent publication US9375010B2 (priority 2013, dated 2016)
